Earlier results as cited in PubChem BioAssay AID1259409 (Chemical Carcinogenesis Research Information System (CCRIS), 2018).

Tested on: rodent chemically induced tumor inhibition, incidence and multiplicity
Experiment: CCRIS tumor inhibitor studies
Details: Route [Inhibitor]: ORAL, Species: RAT

C[C@]12CC[C@H](O)CC1=CC[C@@H]1[C@@H]2CC[C@]2(C)C(=O)CC[C@@H]12
tumour outcome (control, treated, inhibition, significance) (Carcinogen: CYPROTERONE ACETATE [427-51-0], TESTOSTERONE PROPIONATE [57-85-2], N-METHYL-N-NITROSOUREA [684-93-4], Carcinogen: CYPROTERONE ACETATE [427-51-0], TESTOSTERONE PROPIONATE [57-85-2], N-METHYL-N-NITROSOUREA [684-93-4], Dose [Inhibitor]: 1000 MG/KG IN DIET FOR 13 WK BEGINNING 1 WK PRIOR TO MNU DOSE (STUDY DURATION: 14 MONTHS), Strain/Sex: WISTAR-UNILEVER/MALE, Target Tissue: Type of Lesion: PROSTATE AND SEMINAL VESICLE: ADENOCARCINOMA OR CARCINOSARCOMA, Dose [Carcinogen]: 50 MG/KB BW CA BY GAVAGE 1X/D FOR 21 D, 100 MG/KG BW TP SC 1X/D FOR 3 D BEGINNING 1 D POST LAST CA DOSE, 50 MG/KG BW MNU, Dose [Carcinogen]: 50 MG/KB BW CA BY GAVAGE 1X/D FOR 21 D, 100 MG/KG BW TP SC 1X/D FOR 3 D BEGINNING 1 D POST LAST CA DOSE, 50 MG/KG BW MNU, Promoter: TESTOSTERONE (CRYSTALLINE)): 27/32 (84%), 27/34 (79%), 6%, not significant
tumour outcome (control, treated, inhibition, significance) (Carcinogen: CYPROTERONE ACETATE [427-51-0], TESTOSTERONE PROPIONATE [57-85-2], N-METHYL-N-NITROSOUREA [684-93-4], Carcinogen: CYPROTERONE ACETATE [427-51-0], TESTOSTERONE PROPIONATE [57-85-2], N-METHYL-N-NITROSOUREA [684-93-4], Dose [Inhibitor]: 2000 MG/KG IN DIET FOR 13 WK BEGINNING 1 WK PRIOR TO MNU DOSE (STUDY DURATION: 14 MONTHS), Strain/Sex: WISTAR-UNILEVER/MALE, Target Tissue: Type of Lesion: PROSTATE AND SEMINAL VESICLE: ADENOCARCINOMA OR CARCINOSARCOMA, Dose [Carcinogen]: 50 MG/KB BW CA BY GAVAGE 1X/D FOR 21 D, 100 MG/KG BW TP SC 1X/D FOR 3 D BEGINNING 1 D POST LAST CA DOSE, 30 MG/KG BW MNU, Dose [Carcinogen]: 50 MG/KB BW CA BY GAVAGE 1X/D FOR 21 D, 100 MG/KG BW TP SC 1X/D FOR 3 D BEGINNING 1 D POST LAST CA DOSE, 30 MG/KG BW MNU, Promoter: TESTOSTERONE (CRYSTALLINE)): 24/30 (80%), 14/29 (48%), 40%, p<0.05
tumour outcome (control, treated, inhibition, significance) (Carcinogen: CYPROTERONE ACETATE [427-51-0], TESTOSTERONE PROPIONATE [57-85-2], N-METHYL-N-NITROSOUREA [684-93-4], Carcinogen: CYPROTERONE ACETATE [427-51-0], TESTOSTERONE PROPIONATE [57-85-2], N-METHYL-N-NITROSOUREA [684-93-4], Dose [Inhibitor]: 2000 MG/KG IN DIET FOR 13 WK BEGINNING 1 WK PRIOR TO MNU DOSE (STUDY DURATION: 14 MONTHS), Strain/Sex: WISTAR-UNILEVER/MALE, Target Tissue: Type of Lesion: PROSTATE AND SEMINAL VESICLE: ADENOCARCINOMA OR CARCINOSARCOMA, Dose [Carcinogen]: 50 MG/KB BW CA BY GAVAGE 1X/D FOR 21 D, 100 MG/KG BW TP SC 1X/D FOR 3 D BEGINNING 1 D POST LAST CA DOSE, 50 MG/KG BW MNU, Dose [Carcinogen]: 50 MG/KB BW CA BY GAVAGE 1X/D FOR 21 D, 100 MG/KG BW TP SC 1X/D FOR 3 D BEGINNING 1 D POST LAST CA DOSE, 50 MG/KG BW MNU, Promoter: TESTOSTERONE (CRYSTALLINE)): 27/32 (84%), 22/32 (69%), 18%, not significant
tumour outcome (control, treated, inhibition, significance) (Carcinogen: CYPROTERONE ACETATE [427-51-0], TESTOSTERONE PROPIONATE [57-85-2], N-METHYL-N-NITROSOUREA [684-93-4], Carcinogen: CYPROTERONE ACETATE [427-51-0], TESTOSTERONE PROPIONATE [57-85-2], N-METHYL-N-NITROSOUREA [684-93-4], Dose [Inhibitor]: 2000 MG/KG IN DIET FOR 13 WK BEGINNING 20 WK POST MNU DOSE (STUDY DURATION: 14 MONTHS), Strain/Sex: WISTAR-UNILEVER/MALE, Target Tissue: Type of Lesion: PROSTATE AND SEMINAL VESICLE: ADENOCARCINOMA OR CARCINOSARCOMA, Dose [Carcinogen]: 50 MG/KB BW CA BY GAVAGE 1X/D FOR 21 D, 100 MG/KG BW TP SC 1X/D FOR 3 D BEGINNING 1 D POST LAST CA DOSE, 30 MG/KG BW MNU, Dose [Carcinogen]: 50 MG/KB BW CA BY GAVAGE 1X/D FOR 21 D, 100 MG/KG BW TP SC 1X/D FOR 3 D BEGINNING 1 D POST LAST CA DOSE, 30 MG/KG BW MNU, Promoter: TESTOSTERONE (CRYSTALLINE)): 24/30 (80%), 15/30 (50%), 38%, p<0.05
tumour outcome (control, treated, inhibition, significance) (Carcinogen: CYPROTERONE ACETATE [427-51-0], TESTOSTERONE PROPIONATE [57-85-2], N-METHYL-N-NITROSOUREA [684-93-4], Carcinogen: CYPROTERONE ACETATE [427-51-0], TESTOSTERONE PROPIONATE [57-85-2], N-METHYL-N-NITROSOUREA [684-93-4], Dose [Inhibitor]: 2000 MG/KG IN DIET FOR 13 WK BEGINNING 40WK POST MNU DOSE (STUDY DURATION: 14 MONTHS), Strain/Sex: WISTAR-UNILEVER/MALE, Target Tissue: Type of Lesion: PROSTATE AND SEMINAL VESICLE: ADENOCARCINOMA OR CARCINOSARCOMA, Dose [Carcinogen]: 50 MG/KB BW CA BY GAVAGE 1X/D FOR 21 D, 100 MG/KG BW TP SC 1X/D FOR 3 D BEGINNING 1 D POST LAST CA DOSE, 30 MG/KG BW MNU, Dose [Carcinogen]: 50 MG/KB BW CA BY GAVAGE 1X/D FOR 21 D, 100 MG/KG BW TP SC 1X/D FOR 3 D BEGINNING 1 D POST LAST CA DOSE, 30 MG/KG BW MNU, Promoter: TESTOSTERONE (CRYSTALLINE)): 24/30 (80%), 18/30 (60%), 25%, not significant
tumour outcome (control, treated, inhibition, significance) (Carcinogen: DIETHYLNITROSAMINE, 55-18-5, ACETYLAMINOFLUORENE, 53-96-3, Carcinogen: DIETHYLNITROSAMINE, 55-18-5, ACETYLAMINOFLUORENE, 53-96-3, Dose [Inhibitor]: 0, 0.6% IN DIET FOR A MAXIMUM OF 15 WK BEGINNING 15 WK POST INITIATION (STUDY DURATION: 56 WK), Strain/Sex: F344/MALE, Target Tissue: Type of Lesion: LIVER: CARCINOMA, Dose [Carcinogen]: 150 MG/KG DEN ONCE THEN 2 WK LATER 0.02% AAF IN DIET FOR 15 D WITH A PARTIAL HEPATECTOMY MIDWAY THROUGH TREATMENT, Promoter: NONE USED): 8/8 (100%), 1/4 (25%), 75%, not calculated
tumour outcome (control, treated, inhibition, significance) (Carcinogen: DIETHYLNITROSAMINE, 55-18-5, N-METHYL-N-NITROSOUREA, 684-93-5, N-BUTYL-N-(4-HYDROXYBUTYL)NITROSAMINE, 3817-11-6, 1,2-DIM, Carcinogen: DIETHYLNITROSAMINE, 55-18-5, N-METHYL-N-NITROSOUREA, 684-93-5, N-BUTYL-N-(4-HYDROXYBUTYL)NITROSAMINE, 3817-11-6, 1,2-DIM, Dose [Inhibitor]: 0, 0.3% IN DIET FOR 23 WK BEGINNING 1 WK POST CARCINOGEN TREATMENT (STUDY DURATION: 28 WK), Strain/Sex: F344/MALE, Target Tissue: Type of Lesion: LARGE INTESTINE: ADENOMA, Dose [Carcinogen]: 100 MG/KG BW DEN ONCE, 20 MG/KG BW MNU ONCE ON DAYS 6,9, AND 12, 0.05% BBN IN DRINKING WATER FOR FIRST TWO WK, 40 MG/KG, Dose [Carcinogen]: 100 MG/KG BW DEN ONCE, 20 MG/KG BW MNU ONCE ON DAYS 6,9, AND 12, 0.05% BBN IN DRINKING WATER FOR FIRST TWO WK, 40 MG/KG, Promoter: NONE USED): 3/20 (15%), 4/20 (20%), -33%, not significant
